Assays:
[1] = target: T1, Prostaglandin G/H synthase 2 (Mus musculus, UniProt Q05769); assay: Inhibition of mouse COX2
T1 sequence (Q05769 whole entry): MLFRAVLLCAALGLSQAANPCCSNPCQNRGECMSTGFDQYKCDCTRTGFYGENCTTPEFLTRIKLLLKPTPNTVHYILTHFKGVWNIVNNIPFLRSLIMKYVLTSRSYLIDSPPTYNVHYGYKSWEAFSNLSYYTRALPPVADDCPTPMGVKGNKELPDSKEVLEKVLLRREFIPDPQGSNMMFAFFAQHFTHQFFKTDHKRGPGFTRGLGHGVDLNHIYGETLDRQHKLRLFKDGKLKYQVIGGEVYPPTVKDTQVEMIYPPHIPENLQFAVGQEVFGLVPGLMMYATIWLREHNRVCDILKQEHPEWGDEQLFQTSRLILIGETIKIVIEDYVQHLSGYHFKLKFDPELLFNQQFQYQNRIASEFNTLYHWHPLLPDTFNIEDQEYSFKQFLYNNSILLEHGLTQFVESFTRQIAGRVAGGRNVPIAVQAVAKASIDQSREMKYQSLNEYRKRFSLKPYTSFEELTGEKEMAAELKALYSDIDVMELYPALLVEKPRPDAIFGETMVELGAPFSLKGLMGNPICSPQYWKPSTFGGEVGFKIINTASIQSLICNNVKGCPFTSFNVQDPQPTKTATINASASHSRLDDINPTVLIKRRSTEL

Rattus norvegicus [2] = assay: Antiinflammatory activity against carrageenan-induced paw edema in Sprague-Dawley rat at 50 mg/kg, po after 5 hrs; type: functional
[3] = target: T2, Prostaglandin G/H synthase 1 (Ovis aries, UniProt P05979); assay: Inhibition of ovine COX1
T2 sequence (P05979 whole entry): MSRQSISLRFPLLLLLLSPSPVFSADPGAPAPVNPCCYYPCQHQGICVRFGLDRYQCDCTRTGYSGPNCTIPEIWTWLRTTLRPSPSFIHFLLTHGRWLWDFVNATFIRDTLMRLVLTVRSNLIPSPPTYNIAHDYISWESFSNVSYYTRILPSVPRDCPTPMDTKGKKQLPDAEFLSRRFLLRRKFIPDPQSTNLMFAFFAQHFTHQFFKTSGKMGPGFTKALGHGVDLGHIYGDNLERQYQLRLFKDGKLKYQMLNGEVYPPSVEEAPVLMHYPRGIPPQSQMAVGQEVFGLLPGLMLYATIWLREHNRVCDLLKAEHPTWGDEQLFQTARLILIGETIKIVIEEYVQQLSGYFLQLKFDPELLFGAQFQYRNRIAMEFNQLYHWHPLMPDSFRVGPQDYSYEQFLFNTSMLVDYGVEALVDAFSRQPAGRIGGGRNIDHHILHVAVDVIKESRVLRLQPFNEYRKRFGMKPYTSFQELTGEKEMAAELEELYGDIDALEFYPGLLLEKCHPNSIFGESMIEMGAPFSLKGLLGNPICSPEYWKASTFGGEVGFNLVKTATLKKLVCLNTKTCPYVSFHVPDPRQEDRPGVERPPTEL

Rattus norvegicus [4] = assay: Antiinflammatory activity against carrageenan-induced paw edema in Sprague-Dawley rat at 50 mg/kg, po after 3 hrs; type: functional
[5] = Inhibition of ovine COX1 at 0.5 uM
[6] = Inhibition of ovine COX1 at 25 uM

| IC50 [1] [µM] | IC50 [3] [µM] | inhibition [5] [%] | inhibition [6] [%] | Compound | inhibition in vivo at 50 mg/kg (Rattus norvegicus [2]) [%] | inhibition in vivo at 50 mg/kg (Rattus norvegicus [4]) [%] |
| --- | --- | --- | --- | --- | --- | --- |
| > 25 | 0.43 |  |  | CSc1ncc(-c2ccc(S(C)(=O)=O)cc2)n1-c1ccc(Br)cc1 | 88 | 90.7 |
| > 25 | 0.47 |  |  | CSc1ncc(-c2ccc(S(C)(=O)=O)cc2)n1-c1ccc(Cl)cc1 | 42.7 | 59.5 |
| > 25 | 0.52 |  |  | CSc1ncc(-c2ccc(S(C)(=O)=O)cc2)n1-c1ccc(F)cc1 | 18.7 | 40 |
|  |  |  |  | Cc1ccc(-c2cc(C(F)(F)F)nn2-c2ccc(S(N)(=O)=O)cc2)cc1 [CELECOXIB] | 50 | 70.5 |
| > 25 | 0.58 |  |  | CSc1ncc(-c2ccc(S(C)(=O)=O)cc2)n1-c1ccccc1 | 61.6 | 74.1 |
| > 25 | 0.5 | 21 | 29 | CCSc1ncc(-c2ccc(S(C)(=O)=O)cc2)n1-c1ccc(F)cc1 | 43 | 65 |
| > 25 | > 4 |  |  | CCSc1ncc(-c2ccc(S(C)(=O)=O)cc2)n1-c1ccc(Br)cc1 | 59 | 66 |
| > 25 | 0.82 |  |  | CCSc1ncc(-c2ccc(S(C)(=O)=O)cc2)n1-c1ccc(Cl)cc1 | 52.7 | 53.8 |
| > 25 | 0.58 |  |  | CCSc1ncc(-c2ccc(S(C)(=O)=O)cc2)n1-c1ccccc1 | 51.1 | 89.7 |
| > 25 | 2.61 |  |  | COc1ccc(-n2c(-c3ccc(S(C)(=O)=O)cc3)cnc2SC)cc1 | 34.3 | 41.3 |
| > 25 | 0.51 |  |  | CCSc1ncc(-c2ccc(S(C)(=O)=O)cc2)n1-c1ccc(OC)cc1 |  |  |

— ChEMBL document CHEMBL1147032, “Design, synthesis, and biological evaluation of substituted 2-alkylthio-1,5-diarylimidazoles as selective COX-2 inhibitors” (Bioorg Med Chem, 2007)
